From patent publication US9096532B2, “Pyrazole inhibitors of COX-2 and sEH” (The Regents of the University of California, priority 2010, dated 2015)
“Also recorded” adds a separate entry of the source.

What was measured:
[1] = tested on: HepG2 cells; experiment: HepG2 cell viability analysis (MTT); assay type: cell-based; conditions: Homo sapiens, HepG2; MTT after 24 hours of incubation
Method: Cells were plated at 10,000 cell per well in 96-well plates and allowed to attach overnight under the growth conditions described above. […] These compounds were dissolved in 100% DMSO and diluted with EMEM to the desired concentration of 0.1 μM, 1.0 μM, 10 μM, 25 μM, and 50 μM, with a final DMSO concentration of 0.1% for all cell-based in vitro studies. All studies included DMSO as a solvent control. Cell viability was determined using the MTT Cell Viability Assay Kit from ATCC according to manufacturer's instructions. The 96-well plates were measure at 570 nm using SpectroMax 190 plate reader (Molecular Devices, Sunnyvale, Calif.). […] Each concentration was performed in triplicate per 96-well plate and EC50 data are presented as the mean±standard deviation from at least 3 separate experiments performed on separate days.

[2] = target: T1, human sEH (Homo sapiens, UniProt P34913); experiment: sEH IC50 assay, fluorescent-based with CMNPC substrate; assay type: biochemical; conditions: compared to compound 11g
T1 sequence (P34913 1-555): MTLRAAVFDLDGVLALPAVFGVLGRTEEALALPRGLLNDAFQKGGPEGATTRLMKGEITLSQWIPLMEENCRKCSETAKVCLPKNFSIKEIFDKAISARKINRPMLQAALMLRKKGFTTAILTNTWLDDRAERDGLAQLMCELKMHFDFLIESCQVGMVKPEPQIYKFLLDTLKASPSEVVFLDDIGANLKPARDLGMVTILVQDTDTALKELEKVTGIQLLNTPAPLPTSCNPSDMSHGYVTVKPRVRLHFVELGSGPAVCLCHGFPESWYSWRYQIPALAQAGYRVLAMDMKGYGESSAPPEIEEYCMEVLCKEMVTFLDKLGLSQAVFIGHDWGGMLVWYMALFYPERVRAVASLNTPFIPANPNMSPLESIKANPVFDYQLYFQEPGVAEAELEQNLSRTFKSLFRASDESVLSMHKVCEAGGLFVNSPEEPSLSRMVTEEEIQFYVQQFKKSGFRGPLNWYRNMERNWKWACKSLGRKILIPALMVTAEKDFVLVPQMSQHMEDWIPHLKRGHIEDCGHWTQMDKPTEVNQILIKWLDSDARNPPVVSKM
Method: sEH inhibition IC50 values for the compounds presented herein can be assayed by a recombinant affinity assay using purified sEHs, from human, mouse or rat, in a fluorescent-based assay.
For the recombinant affinity assay, purified sEHs (human, mouse and rat) were used in a fluorescent-based assay to determine IC50 values. […] These IC50 values were calculated from at least three separate runs, each in triplicate, to obtain the statistics herein, e.g., standard deviation.

[3] = target: T2, human recombinant COX-2 (Homo sapiens, UniProt P35354); experiment: Cyclooxygenase inhibition assay (COX Fluorescent Inhibitor Screening Assay Kit), COX-2; assay type: biochemical
T2 construct: purchased Cayman Chemical 700100
T2 sequence (P35354 18-604): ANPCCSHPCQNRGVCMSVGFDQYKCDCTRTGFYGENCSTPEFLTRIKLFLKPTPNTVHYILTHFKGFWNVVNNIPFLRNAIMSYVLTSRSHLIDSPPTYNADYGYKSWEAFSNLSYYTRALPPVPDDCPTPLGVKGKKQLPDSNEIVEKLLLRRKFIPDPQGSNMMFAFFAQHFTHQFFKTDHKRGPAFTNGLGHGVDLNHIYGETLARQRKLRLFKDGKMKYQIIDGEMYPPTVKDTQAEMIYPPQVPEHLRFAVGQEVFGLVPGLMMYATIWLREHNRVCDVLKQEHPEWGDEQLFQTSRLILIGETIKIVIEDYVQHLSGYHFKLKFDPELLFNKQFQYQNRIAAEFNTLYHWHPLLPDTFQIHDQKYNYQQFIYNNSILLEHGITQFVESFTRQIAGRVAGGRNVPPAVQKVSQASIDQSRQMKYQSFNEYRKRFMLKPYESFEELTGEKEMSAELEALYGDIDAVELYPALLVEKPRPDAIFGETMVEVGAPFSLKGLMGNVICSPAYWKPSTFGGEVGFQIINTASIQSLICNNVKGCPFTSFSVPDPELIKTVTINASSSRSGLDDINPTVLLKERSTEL
Method: (§1) Stock solutions of test compounds are dissolved in a minimum volume of DMSO. 10 μl of various concentrations of the test compound solutions, e.g., [I]final between 0.01 and 100 μM, are added to a series of supplied reaction buffer solutions (150 μl, 100 mM Tris-HCl, pH 8.0) with either COX-1 or COX-2 (10 μl) enzyme in the presence of Heme (10 μl) and a fluorometric substrate (10 μl). The reactions are initiated by quickly adding 10 μl of arachidonic acid solution and then incubating the system for two minutes at room temperature. […] The intensity of this fluorescence is proportional to the amount of resorufin, which is proportional to the amount of PGG2 present in the well during the incubation. Percent inhibition is calculated by comparison from the 100% initial activity sample value (no inhibitor).
as §1, with “compounds were” for “compounds are”, “μM, were” for “μM, are”, “reactions were” for “reactions are”, “then incubated” for “then incubating the system”, “inhibition was” for “inhibition is”

[4] = target: T3, ovine COX-1 (Ovis aries, UniProt P05979); experiment: Cyclooxygenase inhibition assay (COX Fluorescent Inhibitor Screening Assay Kit), COX-1; assay type: biochemical; conditions: for inhibition at 100 µM: read-out: COX-1 (% inhibition)
T3 construct: purchased Cayman Chemical 700100
T3 sequence (P05979 25-600): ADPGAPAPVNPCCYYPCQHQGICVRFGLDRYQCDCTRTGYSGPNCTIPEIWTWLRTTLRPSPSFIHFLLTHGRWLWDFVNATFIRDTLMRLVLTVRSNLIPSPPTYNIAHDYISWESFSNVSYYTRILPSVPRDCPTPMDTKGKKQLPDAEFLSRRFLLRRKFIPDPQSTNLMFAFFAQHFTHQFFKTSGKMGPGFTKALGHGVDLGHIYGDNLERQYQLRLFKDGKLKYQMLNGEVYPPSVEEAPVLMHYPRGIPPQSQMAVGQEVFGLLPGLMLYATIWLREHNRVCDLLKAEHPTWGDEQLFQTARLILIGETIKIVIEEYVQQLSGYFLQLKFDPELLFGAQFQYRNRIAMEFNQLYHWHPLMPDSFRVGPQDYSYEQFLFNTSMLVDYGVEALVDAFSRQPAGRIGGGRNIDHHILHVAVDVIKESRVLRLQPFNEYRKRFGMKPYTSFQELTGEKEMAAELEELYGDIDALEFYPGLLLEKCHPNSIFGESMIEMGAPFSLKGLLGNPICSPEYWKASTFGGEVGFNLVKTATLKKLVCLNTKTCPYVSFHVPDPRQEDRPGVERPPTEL
Method: as §1
as §1, with “compounds were” for “compounds are”, “μM, were” for “μM, are”, “reactions were” for “reactions are”, “then incubated” for “then incubating the system”, “inhibition was” for “inhibition is”

[5] = Pharmacokinetics in mice by oral cassette dosing; assay type: in vivo; conditions: oral cassette dosing at 5 mg/kg, blood
Method: All the animal experiments were performed according to protocols approved by the Animal Use and Care Committee of University of California, Davis. […] Each cassette was orally administered to 4 mice at a dose of 5 mg/kg in 120-150 μl of vehicle depending on animal weight. […] The instrument was equipped with a linear ion trap and a Turbo V ion source and was operated in negative ion MRM mode. […] This was maintained for 3 min, then the gradient was returned to 30% solvent B in 2 min. The flow rate was 0.4 mL/min. The injection volume was 10 μL and the samples were kept at 4° C. in the auto sampler.

[6] = target: T4, 5-LOX (Homo sapiens, UniProt P09917); experiment: Potency against 5-LOX; assay type: biochemical; conditions: compared with celecoxib
T4 sequence (P09917 1-674): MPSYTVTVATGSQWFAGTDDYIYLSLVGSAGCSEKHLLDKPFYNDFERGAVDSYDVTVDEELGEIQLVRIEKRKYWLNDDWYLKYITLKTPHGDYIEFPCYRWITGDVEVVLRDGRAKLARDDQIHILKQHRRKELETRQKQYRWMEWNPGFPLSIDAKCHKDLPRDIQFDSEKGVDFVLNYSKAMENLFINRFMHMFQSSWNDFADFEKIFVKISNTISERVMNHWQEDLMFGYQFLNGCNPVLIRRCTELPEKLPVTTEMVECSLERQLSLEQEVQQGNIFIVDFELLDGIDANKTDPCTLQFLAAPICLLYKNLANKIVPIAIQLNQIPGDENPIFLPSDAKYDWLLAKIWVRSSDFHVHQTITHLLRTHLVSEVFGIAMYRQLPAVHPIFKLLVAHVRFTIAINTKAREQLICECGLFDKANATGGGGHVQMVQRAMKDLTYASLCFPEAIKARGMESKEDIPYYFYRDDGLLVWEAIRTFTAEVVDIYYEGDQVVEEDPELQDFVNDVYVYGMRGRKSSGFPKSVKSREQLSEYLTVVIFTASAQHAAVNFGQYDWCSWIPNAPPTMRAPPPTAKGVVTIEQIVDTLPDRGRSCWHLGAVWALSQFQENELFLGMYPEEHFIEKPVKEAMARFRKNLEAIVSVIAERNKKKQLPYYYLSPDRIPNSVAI

[7] = Pharmacokinetics in rats by oral administration
[8] = tested on: LPS induced allodynia; experiment: Von Frey mechanical nociceptive assay, LPS induced model of inflammatory pain; assay type: in vivo; conditions: male SD rats, 10 mg/kg s.c. 60 minutes before intraplantar LPS, tested until 6 hours post LPS
Method: In vivo anti-allodynic effects of the COX-2/sEH dual inhibitors provided herein was assayed. An LPS induced model of inflammatory pain was used to compare the pain reducing activity of the COX-2/sEH dual inhibitors to combination and individual therapies.
Rats weighing approximately 250-300 grams are brought to the testing apparatus and allowed to acclimate for 30 minutes. After 30 minutes the rats are tested with a von Frey aesthesiometer for their non-treated baseline withdrawal latency to mechanical stimulation. The von Frey apparatus is a raised metal mesh platform that has clear acrylic chambers to enclose rats but allow them to move freely. A rigid tip von Frey probe is used to probe the plantar surface of the rat hind paw though the mesh floor to elicit a withdrawal response. The measures recorded are grams of force applied to the hind paw required to elicit a withdrawal. The pretreatment baseline score is considered the pain-free baseline (BL) and is assigned 100% for further response calculations. […] The measures are then calculated as a percent of the pretreatment baseline score.

[9] = human recombinant COX-2, triplicate average
[10] = rats, oral administration at 1 mg/kg (n = 4), blood

Structure (SMILES): Cc1ccc(-c2cc(C(F)(F)F)nn2-c2ccc(S(N)(=O)=O)cc2)cc1 [Celecoxib, celecoxib, reference compound]
- EC50 [1]: 20 ± 4 µM

Structure (SMILES): NS(=O)(=O)c1ccc(-n2nc(CCCNC(=O)Nc3cccc(C(F)(F)F)c3)cc2-c2ccccc2)cc1 [Compound 21b, 4-(5-Phenyl-3-{3-[3-(3-trifluoromethyl-phenyl)-ureido]-propyl}-pyrazol-1-yl)-benzenesulfonamide]
- Improvement of sEH inhibition [2]: 20 fold
- IC50 [3, 9]: 710 nM
- IC50 ([3]; text of b131, unit inferred): 710 nM
- IC50 [4]: > 100 µM
- inhibition at 100 µM [4]: 27.2%
- AUC [5]: 35 nM·h
- Cmax [5]: 19 nM
- Tmax [5]: 30 min
- t1/2 [5]: 1.0 h
- Potency against 5-LOX, in words [6]: comparable with celecoxib

Structure (SMILES): NS(=O)(=O)c1ccc(-n2nc(CCCNC(=O)Nc3ccc(OC(F)(F)F)cc3)cc2-c2ccccc2)cc1 [Compound 21j, 4-(5-Phenyl-3-{3-[3-(4-trifluoromethoxy-phenyl)-ureido]-propyl}-pyrazol-1-yl)-benzenesulfonamide]
- IC50 [3, 9]: 920 nM
- IC50 [4]: > 100 µM
- inhibition at 100 µM [4]: 13.8%
- AUC [5]: 1335 nM·h
- Cmax [5]: 290 nM
- Tmax [5]: 48 min
- t1/2 [5]: 2.4 h
- EC50 [1]: 10 ± 2 µM
- Potency against 5-LOX, in words [6]: comparable with celecoxib
- half-life ([7]; male, Sprague-Dawley, rat, whole blood, po, 1 mg/kg): 696 ± 336 min
- AUC [7, 10]: 1230 ± 521 nM·h
- Cmax [7, 10]: 180 ± 71 nM
- Tmax [7, 10]: 1.0 ± 0.7 h

Structure (SMILES): O=C(NC1CCC(Oc2ccc(C(=O)O)cc2)CC1)NC12CC3CC(CC(C3)C1)C2 (centres unmarked) [t-AUCB, reference compound]
- COX-1 (% inhibition) ([4]; ovine COX-1, % inhibition at 100 μM concentration): 25.2%
- Anti-allodynic effect, von Frey paw withdrawal, in words [8]: slight antihyperalgesic effect; also recorded: limited effect
